Experimental data from US9505772B2, “Aromatic ring compound” (TAKEDA PHARMACEUTICAL COMPANY LIMITED, priority 2012, dated 2016).

Columns and labels:
[1] = target: T1, human MCHR1 (Homo sapiens, UniProt Q99705); test: Human MCH receptor 1 (MCHR1) binding inhibitory activity, binding assay with [125I]-MCH(4-19); conditions: test compound 0.1 μM, human MCHR1-expressing CHO cell membrane fraction, read-out: Binding inhibition rate % (0.1 μM)
T1 construct: expressed in transfected cells; host or cells: CHO cell clone 57 (described in WO01/82925); membrane fraction
Procedure: Determination of Human MCH Receptor 1 (MCHR1) Binding Inhibitory Activity of Test Compound Using Binding Assay
1. Preparation of Membrane Fraction
Using human MCHR1(=SLC-1 receptor)-expressing CHO cell clone 57 described in WO01/82925, MCHR1-expressing CHO cellular membrane fractions were prepared by the following method.
In phosphate buffered saline (pH 7.4) supplemented with 5 mM EDTA (ethylenediaminetetraacetic acid) were respectively suspended human MCHR1-expressing CHO cells (1×10^8 cells) and centrifuged. Homogenate buffer (10 mL, 10 mM NaHCO3, 5 mM EDTA, pH 7.5, 0.5 mM PMSF (phenylmethylsulfonyl fluoride), 20 mg/L leupeptin, 4 mg/L E-64, 1 mg/L pepstatin A) was added to the pellets of the cells and, using Polytron Homogenizer, the mixture was homogenated. The supernatant obtained after centrifugation at 400×g for 10 min was further centrifuged at 100,000×g for 1 hr to give precipitate of the membrane fraction. The precipitate were suspended in 2 mL of assay buffer [20 mM Tris-HCl (pH 7.5), 5 mM EDTA, 0.5 mM PMSF, 20 mg/L leupeptin, 4 mg/L E-64, 1 mg/L pepstatin A]. The membrane fractions were suspended in assay buffer to a protein concentration of 2 mg/mL, and after dispensing, preserved at −80° C. and used upon thawing each time when in use.
The MCHR1 ligand binding inhibitory activity of the test compound was determined as follows.
An MCHR1-expressing CHO cellular membrane fraction (173 μL) diluted with an assay buffer was dispensed to a 96 well polypropylene plate (3363, Corning). DMSO solution (2 μL), 33 μM cold MCH(1-19) diluted with DMSO solution (2 μL), or a test compound solution diluted with DMSO solution to various concentrations (2 μL) was added, and lastly, [^125I]-MCH(4-19) diluted with assay buffer (hereinafter, sometimes to be referred to as “hot MCH”, 25 μL) was added to each well. The mixture was reacted with stirring at room temperature for 1 hr, and the plate was set on FilterMate Harvester (PerkinElmer). Using a treating glass filter plate (GF/C, PerkinElmer) with polyethyleneimine, which had been previously set, the plate was suction-filtered and washed three times with washing buffer (50 mM Tris-HCl buffer pH 7.5). The glass filter plate was dried, MicroScinti0 (PerkinElmer) was added at 25 μL/well, and the resulting radioactivity was measured by TopCount liquid scintillation counter (PerkinElmer). The binding inhibition rate of the test compound was calculated by the following formula. Binding inhibition (%)=100−(radioactivity upon addition of test compound and hot MCH−radioactivity upon addition of cold MCH and hot MCH solution)/(radioactivity upon addition of DMSO solution and hot MCH−radioactivity upon addition of cold MCH and hot MCH solution)×100
The binding inhibition rates (%) of test compounds (0.1 μM) as measured using human MCHR1-expressing CHO cell are shown in Table 2.

[2] = target: T1, human MCHR1; test: MCH receptor 1 antagonistic activity, Ca2+ mobilization assay; format: cell-based; conditions: test compound 0.1 μM; human MCHR1-expressing CHO cells (clone #4); MCH(4-19) 2 nM; read-out: Inhibition rate % (0.1 μM)
Procedure: Measurement of MCH Receptor 1 Antagonistic Activity of Test Compound Using Ca^2+ Mobilization Assay
Using an expression vector plasmid introduced with human MCHR1 gene for expression in animal cells, human MCHR1 gene was introduced into CHO cells (CHO dhfr^−) by Lipofectamine LTX (Invitrogen). The cells were cultured in selection MEMα medium [445 mL of MEMα medium without nucleic acid and added with 5 mL of Penicillin-Streptomycin (Invitrogen) and 50 mL of dialyzed fetal bovine serum]. Colony 24 clones grown in the selection medium, which were human MCHR1 gene-expressing CHO cell candidates, were selected. […] In the following test, this human MCHR1-expressing CHO cell (clone #4) was used. An integrated dispensing function fluorometer (CellLux, PerkinElmer) was used for Ca^2+ mobilization assay. The CHO cells were sown in a 96 well plate (type 3904, Corning) with a black wall and clear well bottom at a density of 20000 cells/well, and cultured in an incubator for about 24 hr at 5% CO2, 37° C. The medium was removed, and the cells were washed with phosphate buffered saline (PBS). A Ca^2+ indicator dye reagent (DOJINDO LABORATORIES, Ca screening no-wash kit Fluo4) was added at 100 μL/well, and the dye was allowed to penetrate into the cell for 30 min in an incubator at 5% CO2, 37° C. The plate was set on a plate reader. First, a test compound solution diluted with an assay buffer [10 mM HEPES (pH 7.4), 1× assay buffer containing 0.1% BSA (DOJINDO LABORATORIES, attached to Ca screening no-wash kit Fluo4)] or DMSO solution was added at 50 μL/well, and then ligand MCH (4-19) peptide (final concentration 2 nM) diluted with assay buffer or DMSO was added at 50 μL/well, during which changes in intracellular fluorescence were measured at 2 second intervals. The antagonistic activity of the test compound was calculated by the following formula and shown as an inhibition rate (%) wherein the intracellular fluorescence activity resulting from the stimulation by the addition of ligand MCH (4-19) peptide was 100% and that of the well added with DMSO solution alone was 0%. inhibitory rate (%)=100−[fluorescence activity upon addition of test compound and MCH(4-19) peptide solution−fluorescence activity upon addition of DMSO solution only]/[fluorescence activity upon addition of DMSO solution and MCH(4-19) peptide solution−fluorescence activity upon addition of DMSO solution only]×100
The inhibition rates (%) of test compounds (0.1 μM) as antagonist activity measured using human MCHR1-expressing CHO cells (clone #4) are shown in the following Table 3.

T1 sequence (Q99705 whole entry): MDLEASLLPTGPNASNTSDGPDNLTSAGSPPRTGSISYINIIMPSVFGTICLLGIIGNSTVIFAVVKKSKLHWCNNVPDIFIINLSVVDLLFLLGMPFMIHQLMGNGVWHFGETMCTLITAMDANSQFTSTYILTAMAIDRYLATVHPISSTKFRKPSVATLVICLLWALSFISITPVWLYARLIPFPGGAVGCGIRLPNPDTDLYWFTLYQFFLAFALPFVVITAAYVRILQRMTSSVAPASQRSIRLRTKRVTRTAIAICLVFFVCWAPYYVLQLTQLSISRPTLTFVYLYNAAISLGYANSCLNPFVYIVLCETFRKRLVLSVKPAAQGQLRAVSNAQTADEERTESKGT

SMILES	inhibition at 0.1 µM [1] [%]	inhibition at 0.1 µM [2] [%]
COc1ccc(-c2cc3c(=O)n(-c4ccc(OCC5(C#N)CC5)c(OC)c4)ccc3o2)cc1 [Example 16, 1-((2-Methoxy-4-(2-(4-methoxyphenyl)-4-oxofuro[3,2-c]pyridin-5(4H)-yl)phenoxy)methyl)cyclopropanecarbonitrile]	79	97
COc1cc(-n2ccc3oc(-c4ccc(F)cn4)cc3c2=O)ccc1OCC1(C#N)CC1 [Example 21, 1-((4-(2-(5-Fluoropyridin-2-yl)-4-oxofuro[3,2-c]pyridin-5(4H)-yl)-2-methoxyphenoxy)methyl)cyclopropanecarbonitrile]	42	–
COc1cc(-n2ccc3oc(-c4ccc(Cl)cc4)cc3c2=O)cnc1OCC1(C#N)CC1 [Example 23, 1-(((5-(2-(4-Chlorophenyl)-4-oxofuro[3,2-c]pyridin-5(4H)-yl)-3-methoxypyridin-2-yl)oxy)methyl)cyclopropanecarbonitrile]	73	72
N#CC1(COc2ccc(-n3ccc4oc(-c5ccc(Cl)cc5)cc4c3=O)cc2Cl)CC1 [Example 8, 1-((2-Chloro-4-(2-(4-chlorophenyl)-4-oxofuro[3,2-c]pyridin-5(4H)-yl)phenoxy)methyl)cyclopropanecarbonitrile]	76	–
COc1cc(-n2ccc3oc(-c4ccccc4)cc3c2=O)ccc1OCC1(C#N)CC1 [Example 20, 1-((2-Methoxy-4-(4-oxo-2-phenylfuro[3,2-c]pyridin-5(4H)-yl)phenoxy)methyl)cyclopropanecarbonitrile]	58	–
CCc1cc(-n2ccc3oc(-c4ccc(Cl)cc4)cc3c2=O)ccc1OCC1(C#N)CC1 [Example 47, 1-((4-(2-(4-Chlorophenyl)-4-oxofuro[3,2-c]pyridin-5(4H)-yl)-2-ethylphenoxy)methyl)cyclopropanecarbonitrile]	74	–
Cc1cc(-n2ccc3oc(-c4ccc(Cl)cc4)cc3c2=O)ccc1OCC1(C#N)CC1 [Example 33, 1-((4-(2-(4-Chlorophenyl)-4-oxofuro[3,2-c]pyridin-5(4H)-yl)-2-methylphenoxy)methyl)cyclopropanecarbonitrile]	84	34
COc1cc(-n2ccc3oc(-c4ccc(C(F)(F)F)cc4)cc3c2=O)ccc1OCC1(C#N)CC1 [Example 27, 1-((2-Methoxy-4-(4-oxo-2-(4-(trifluoromethyl)phenyl)furo[3,2-c]pyridin-5(4H)-yl)phenoxy)methyl)cyclopropanecarbonitrile]	60	–
COC(=O)c1ccc(-n2ccc3oc(-c4ccc(Cl)cc4)cc3c2=O)cc1OC [Example 24, Methyl 4-(2-(4-chlorophenyl)-4-oxofuro[3,2-c]pyridin-5(4H)-yl)-2-methoxybenzoate]	47	–
COc1cc(-n2ccc3oc(-c4ccccc4F)cc3c2=O)ccc1OCC1(C#N)CC1 [Example 15, 1-((4-(2-(2-Fluorophenyl)-4-oxofuro[3,2-c]pyridin-5(4H)-yl)-2-methoxyphenoxy)methyl)cyclopropanecarbonitrile]	17	–
COc1cc(-n2ccc3oc(-c4ccc(Cl)cc4)cc3c2=O)ccc1O [Example 30, 2-(4-Chlorophenyl)-5-(4-hydroxy-3-methoxyphenyl)furo[3,2-c]pyridin-4(5H)-one]	66	–
COc1cc(-n2ccc3oc(-c4ccc(Cl)cc4)cc3c2=O)ccc1C(=O)NCC1CC1 [Example 45, 4-(2-(4-Chlorophenyl)-4-oxofuro[3,2-c]pyridin-5(4H)-yl)-N-(cyclopropylmethyl)-2-methoxybenzamide]	74	–

The next lines start with the values.

inhibition at 0.1 µM [1] [%]	inhibition at 0.1 µM [2] [%]	SMILES
97	106	COc1cc(-n2ccc3oc(-c4ccc(Cl)cc4)cc3c2=O)ccc1OCC(C)(C)O [Example 7, 2-(4-Chlorophenyl)-5-(4-(2-hydroxy-2-methylpropoxy)-3-methoxyphenyl)furo[3,2-c]pyridin-4(5H)-one]
90	–	COc1cc(-n2ccc3oc(-c4ccc(Cl)cc4)cc3c2=O)ccc1OCCCC(N)=O [Example 51, 4-(4-(2-(4-Chlorophenyl)-4-oxofuro[3,2-c]pyridin-5(4H)-yl)-2-methoxyphenoxy)butanamide]
92	99	COc1cc(-n2ccc3oc(-c4ccc(Cl)cc4)cc3c2=O)ccc1OCC1CCO1 (stereo not drawn) [Example 43, 2-(4-Chlorophenyl)-5-(3-methoxy-4-(oxetan-2-ylmethoxy)phenyl)furo[3,2-c]pyridin-4(5H)-one]
97	100	COc1cc(-n2ccc3oc(-c4ccc(Cl)cc4)cc3c2=O)ccc1OCC1(C#N)CC1 [Example 5, 1-((4-(2-(4-Chlorophenyl)-4-oxofuro[3,2-c]pyridin-5(4H)-yl)-2-methoxyphenoxy)methyl)cyclopropanecarbonitrile]
96	84	COc1cc(-n2ccc3oc(-c4ccc(Cl)cc4)cc3c2=O)ccc1OCC1CCOC1 (stereo not drawn) [Example 39, 2-(4-Chlorophenyl)-5-(3-methoxy-4-(tetrahydrofuran-3-ylmethoxy)phenyl)furo[3,2-c]pyridin-4(5H)-one]
81	94	COc1ccc(-n2ccc3oc(-c4ccc(Cl)cc4)cc3c2=O)cc1OC [Example 2, 2-(4-Chlorophenyl)-5-(3,4-dimethoxyphenyl)furo[3,2-c]pyridin-4(5H)-one]
71	–	CCC1(COc2ccc(-n3ccc4oc(-c5ccc(Cl)cc5)cc4c3=O)cc2OC)COC1 [Example 48, 2-(4-Chlorophenyl)-5-(4-((3-ethyloxetan-3-yl)methoxy)-3-methoxyphenyl)furo[3,2-c]pyridin-4(5H)-one]
95	78	COc1cc(-n2ccc3oc(-c4ccc(Cl)cc4)cc3c2=O)ccc1OCC1CCCO1 (stereo not drawn) [Example 36, 2-(4-Chlorophenyl)-5-(3-methoxy-4-(tetrahydrofuran-2-ylmethoxy)phenyl)furo[3,2-c]pyridin-4(5H)-one]
85	–	COc1cc(-n2ccc3oc(-c4ccc(Cl)cc4)cc3c2=O)ccc1OCC(N)=O [Example 50, 2-(4-(2-(4-Chlorophenyl)-4-oxofuro[3,2-c]pyridin-5(4H)-yl)-2-methoxyphenoxy)acetamide]
